The values below come from patent publication EP4685142A1, “TRIAZINE COMPOUND AND USE THEREOF” (Chengdu Zenitar Biomedical Technology Co., Ltd., priority 2023, dated 2024).

In the first experiment the target is T1, NLRP3 inflammasome (Homo sapiens, UniProt Q96P20).
T1 construct: host or cells: THP-1 cells
T1 sequence (Q96P20 whole entry): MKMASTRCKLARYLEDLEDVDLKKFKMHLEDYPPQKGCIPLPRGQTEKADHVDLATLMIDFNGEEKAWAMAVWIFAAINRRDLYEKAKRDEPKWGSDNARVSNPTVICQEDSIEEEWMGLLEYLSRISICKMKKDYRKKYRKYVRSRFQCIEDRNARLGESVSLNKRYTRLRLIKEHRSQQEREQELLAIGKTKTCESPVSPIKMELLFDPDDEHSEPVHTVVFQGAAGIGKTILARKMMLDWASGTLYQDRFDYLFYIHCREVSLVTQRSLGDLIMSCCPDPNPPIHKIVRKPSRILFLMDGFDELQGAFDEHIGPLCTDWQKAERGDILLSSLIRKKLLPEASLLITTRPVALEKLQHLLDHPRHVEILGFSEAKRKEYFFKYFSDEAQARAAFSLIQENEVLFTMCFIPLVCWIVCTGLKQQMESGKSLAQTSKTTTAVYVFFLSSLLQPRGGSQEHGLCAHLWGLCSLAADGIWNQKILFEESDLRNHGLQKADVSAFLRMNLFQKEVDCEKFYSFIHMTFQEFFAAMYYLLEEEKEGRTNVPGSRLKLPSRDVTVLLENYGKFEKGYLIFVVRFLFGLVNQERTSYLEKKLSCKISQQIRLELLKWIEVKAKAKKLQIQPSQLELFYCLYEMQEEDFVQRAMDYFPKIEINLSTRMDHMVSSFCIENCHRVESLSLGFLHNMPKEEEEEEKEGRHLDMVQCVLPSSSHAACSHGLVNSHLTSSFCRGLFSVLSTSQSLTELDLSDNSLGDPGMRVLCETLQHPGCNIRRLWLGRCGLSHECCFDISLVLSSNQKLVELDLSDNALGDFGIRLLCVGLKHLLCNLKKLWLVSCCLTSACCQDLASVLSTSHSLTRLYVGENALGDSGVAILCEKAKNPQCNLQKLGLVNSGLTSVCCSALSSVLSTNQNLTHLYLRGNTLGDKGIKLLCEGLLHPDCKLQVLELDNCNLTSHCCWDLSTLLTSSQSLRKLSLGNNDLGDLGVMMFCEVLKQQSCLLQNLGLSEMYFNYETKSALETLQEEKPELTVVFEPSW
Put plainly: Inhibitory activity of NLRP3 inflammasome in human monocytes (THP-1 cells, LPS + Nigericin, IL-1β ELISA).
Conditions: not given
The class given is cell-based. The method, then:
1. Determination of inhibitory activity of NLRP3 inflammasome in human monocytes
Experimental method: THP-1 cells were cultured in RPMI culture medium containing PMA (10 µM), and then inoculated in 48-well plates at a density of 2×10^5 cells/mL, the plates were incubated overnight in a 5% CO2 incubator at 37°C. The next day, the above culture medium was replaced with Opti-MEM culture medium containing 1 µg/mL LPS. After 3 hours, the grown cells were simulated for 40 min with a drug, and then simulated for 40 min with Nigericin (10 µM), and a cell supernatant was harvested for ELISA analysis.
Table 2 Inhibitory activity of NLRP3 inflammasome
On to `CN1CCC[C@@H](Nc2nnc(-c3ccc(-c4ccc(F)cc4)cc3O)n(C)c2=O)C1` [Compound 46, (R)-3-(4'-fluoro-3-hydroxy-[1,1'-biphenyl]-4-yl)-4-methyl-6-((1-methylpiperidin-3-yl)amino)-1,2,4-triazin-5(4H)-ketone], for which the IC50 turned out to be 0.0255 µM.

Staying with this experiment, now noted: THP-1 cells, PMA, LPS 1 µg/mL 3 h, drug 40 min, Nigericin 10 µM 40 min, IL-1β ELISA; read-out: IC50.
Consider `CC#Cc1ccc(-c2nnc(N[C@@H]3CCCN(CCO)C3)c(=O)n2C)c(O)c1` [Compound 29, (R)-6-((1-(2-hydroxyethyl)piperidin-3-yl)amino)-3-(2-hydroxy-4-(prop-1-yn-1-yl)phenyl)-4-methyl-1,2,4-triazin-5(4H)-ketone], for which the IC50 is 0.0465 µM. For the compound `CN1CCCC2CCN(c3nnc(-c4ccc5sccc5c4O)n(C)c3=O)C21` (stereo not drawn) [Compound 48, 3-(4-hydroxybenzo[b]thiophen-5-yl)-4-methyl-6-(7-methyloctahydro-1H-pyrrolo[2,3-b]pyridin-1-yl)-1,2,4-triazin-5(4H)-ketone], the IC50 turned out to be 0.0185 µM. `CC#Cc1ccc(-c2nnc(N[C@@H]3CCCN(C)C3)c(=O)n2C)c(O)c1` [Compound 27, (R)-3-(2-hydroxy-4-(prop-1-yn-1-yl)phenyl)-4-methyl-6-((1-methylpiperidin-3-yl)amino)-1,2,4-triazin-5(4H)-ketone]: the IC50 worked out at 0.0143 µM. As for `C#Cc1ccc(-c2nnc(N[C@@H]3CCCN(CC)C3)c(=O)n2C)c(O)c1` [Compound 25, (R)-6-((1-ethylpiperidin-3-yl)amino)-3-(4-ethynyl-2-hydroxyphenyl)-4-methyl-1,2,4-triazin-5 (4H)-ketone], the IC50 amounted to 0.0067 µM. Consider `C#Cc1ccc(-c2nnc(N[C@@H]3CCCN(CCO)C3)c(=O)n2C)c(O)c1` [Compound 26, (R)-3-(4-ethynyl-2-hydroxyphenyl)-6-((1-(2-hydroxyethyl)piperidin-3-yl)amino)-4-methyl-1,2,4-triazin-5(4H)-ketone], for which the IC50 is 0.0251 µM. On the same count and under the same terms, the value for `[2H]C([2H])([2H])N1CCC[C@@H](Nc2nnc(-c3ccc4sccc4c3O)n(C)c2=O)C1` [Compound 10, (R)-3-(4-hydroxybenzo[b]thiophen-5-yl)-4-methyl-6-((1-(methyl-d3)piperidin-3-yl)amino)-1,2,4-triazin-5(4H)-ketone] was 0.0039 µM.

Still in this experiment, the particulars now being: read-out: IC50.
In the case of `CN1CCC[C@@H](Nc2nnc(-c3ccc4sccc4c3O)n(C3CC3)c2=O)C1` [Compound 21, (R)-4-cyclopropyl-3-(4-hydroxybenzo[b]thiophen-5-yl)-6-((1-methylpiperidin-3-yl)amino)-1,2,4-triazin-5(4H)-ketone], the IC50 came to 0.00351 µM. The same measure, in the same setting: the value for `C[C@H]1CC[C@@H](Nc2nnc(-c3ccc4sccc4c3O)n(C)c2=O)CN1C` [Compound 50, 6-(((3R,6S)-1,6-dimethylpiperidin-3-yl)amino)-3-(4-hydroxybenzo[b]thiophen-5-yl)-4-methyl-1,2,4-triazin-5 (4H)-ketone] was 0.35 µM.

In the case of `Cn1c(-c2ccc3ccccc3c2O)nnc(N[C@@H]2CCCC[C@H]2O)c1=O` [Compound 33, 6-(((1R,2R)-2-hydroxycyclohexyl)amino)-3-(1-hydroxynaphthalene-2-yl)-4-methyl-1,2,4-tria zine-5(4H)-ketone], the IC50 turned out to be 0.0125 µM. Still for that read-out and setting: the value for `CN1C[C@H](Nc2nnc(-c3ccc4sccc4c3O)n(C)c2=O)CC(F)(F)C1` [Compound 37, (R)-6-((5,5-difluoro-1-methylpiperidin-3-yl)amino)-3-(4-hydroxybenzb[b]thiophen-5-yl)-4-m ethyl-1,2,4-triazin-5(4H)-ketone] was 0.0151 µM; that for `CN1CCC[C@@H](Nc2nnc(-c3ccc(-c4ncccn4)cc3O)n(C)c2=O)C1` [Compound 47, (R)-3-(2-hydroxy-4-(pyrimidin-2-yl)phenyl)-4-methyl-6-((1-methylpiperidin-3-yl)amino)-1,2,4-triazin-5(4H)-ketone] was 0.45 µM; that for `CN1CCO[C@H](CNc2nnc(-c3ccc4sccc4c3O)n(C)c2=O)C1` [Compound 34, (R)-3-(4-hydroxybenzo[b]thiophen-5-yl)-4-methyl-6-(((4-methylmorpholino-2-yl)methyl)amino)-1,2,4-triazine-5(4H)-ketone] was 0.075 µM.

Regarding `CC#Cc1ccc(-c2nnc(N[C@@H]3CCCC[C@H]3O)c(=O)n2C)c(O)c1` [Compound 32, 3-(2-hydroxy-4-(prop-1-yn-1-yl)phenyl)-6-(((1R,2R)-2-hydroxycyclohexyl)amino)-4-methyl-1,2,4-triazin-5(4H)-ketone.], the IC50 was found to be 0.00853 µM. The same measure, in the same setting: the same measure for `CN1CCC[C@@H](Nc2nnc(-c3ccc4sccc4c3OC(F)F)n(C)c2=O)C1` [Compound 38, (R)-3-(4-(difluoromethoxy)benzo[b]thiophen-5-yl)-4-methyl-6-((1-methylpiperidin-3-yl)amino)-1,2,4-triazin-5(4H)-ketone]: 0.257 µM.

In the case of `Cn1c(-c2ccc3c(c2O)CCC3=C(F)F)nnc(N[C@@H]2CCCN(CCO)C2)c1=O` [Compound 1, (R)-3-(1-(difluoromethylene)-4-hydroxy-2,3-dihydro-1H-inden-5-yl)-6-((1-(2-hydroxyethyl)piperidin-3-yl)amino)-4-methyl-1,2,4-triazin-5(4H)-ketone], the IC50 came to 0.00424 µM. Still for that read-out and setting: the same measure for `[2H]C([2H])([2H])C([2H])([2H])N1CCC[C@@H](Nc2nnc(-c3ccc4ccccc4c3O)n(C)c2=O)C1` [Compound 7, (R)-6-((1-(ethyl-d5)piperidin-3-yl)amino)-3-(1-hydroxynaphthalen-2-yl)-4-methyl-1,2,4-triazi n-5(4H)-ketone]: 0.0221 µM; for `CC#Cc1ccc(-c2nnc(N[C@@H]3CCCN(CC)C3)c(=O)n2C)c(O)c1` [Compound 28, (R)-6-((1-ethylpiperidin-3-yl)Jamino)-3-(2-hydroxy-4-(prop-1-yn-1-yl)phenyl)-4-methyl-1,2,4-triazin-5(4H)-ketone]: 0.0296 µM; for `O=c1c(N[C@@H]2CCCN(CCO)C2)nnc(-c2ccc3sccc3c2O)n1C1CC1` [Compound 23, (R)-4-cyclopropyl-3-(4-hydroxybenzo[b]thiophen-5-yl)-6-((1-(2-hydroxyethyl)piperidin-3-yl)amino)-1,2,4-triazin-5(4H)-ketone]: 0.00895 µM. Still for that read-out and setting: the value for `CCN1CCC[C@@H](Nc2nnc(-c3ccc4sccc4c3O)n(C3CC3)c2=O)C1` [Compound 22, (R)-4-cyclopropyl-6-((1-ethylpiperidin-3-yl)amino)-3-(4-hydroxybenzo[b]thiophen-5-yl)-1,2,4-triazin-5(4H)-ketone] was 0.00257 µM; that for `CN1CCC[C@@H](Nc2nnc(-c3ccc(C#CC4CC4)cc3O)n(C)c2=O)C1` [Compound 44, (R)-3-(4-(cyclopropylethynyl)-2-hydroxyphenyl)-4-methyl-6-((1-methylpiperidin-3-yl)amino) -1,2,4-triazin-5(4H)-ketone] was 0.08 µM. With `CN1CCC[C@@H](Nc2nnc(-c3ccc4ccccc4c3O)n(C)c2=O)C1` [Compound 18, (R)-3-(1-hydroxy-2-naphthyl)-4-methyl-6-((1-methylpiperidin-3-yl)amino)-1,2,4-triazin-5(4H )-ketone], the IC50 was 0.025 µM.

In the case of `C[C@@H]1[C@H](Nc2nnc(-c3ccc4sccc4c3O)n(C)c2=O)CCCN1C` [Compound 49, 6-(((2R,3R)-1,2-dimethylpiperidin-3-yl)amino)-3-(4-hydroxybenzo[b]thiophen-5-yl)-4-methy 1-1,2,4-triazin-5(4H)-ketone], the IC50 was 0.00812 µM. For `CCN1CCC[C@@H](Nc2nnc(-c3ccc(C#CC4CC4)cc3O)n(C)c2=O)C1` [Compound 45, (R)-3-(4-(cyclopropylethynyl)-2-hydroxyphenyl)-6-((1-ethylpiperidin-3-yl)amino)-4-methyl-1 ,2,4-triazin-5(4H)-ketone], the IC50 was 0.345 µM. The same measure, in the same setting: the same measure for `[2H]C([2H])([2H])C([2H])([2H])N1CCC[C@@H](Nc2nnc(-c3ccc4c(c3O)CCC4=C(F)F)n(C)c2=O)C1` [Compound 15, (R)-3-(1-(difluoromethylene)-4-hydroxy-2,3-dihydro-1H-inden-5-yl)-6-((1-(ethyl-d5)piperidin-3-yl)amino)-4-methyl-1,2,4-triazin-5(4H)-ketone]: 0.00145 µM; for `CN1CCC[C@@H](Nc2nnc(-c3ccc(C4CC4)cc3O)n(C)c2=O)C1` [Compound 39, (R)-3-(4-cyclopropyl-2-hydroxyphenyl)-4-methyl-6-((1-methylpiperidin-3-yl)amino)-1,2,4-tri azin-5(4H)-ketone]: 0.03 µM. The same measure, in the same setting: the value for `CCN1CCC[C@@H](Nc2nnc(-c3ccc(C4CC4)cc3O)n(C)c2=O)C1` [Compound 11, (R)-3-(4-cyclopropyl-2-hydroxyphenyl)-6-((1-ethylpiperidin-3-yl)amino)-4-methyl-1,2,4-triaz in-5(4H)-ketone] was 0.0065 µM; that for `C#Cc1ccc(-c2nnc(N[C@@H]3CCCC[C@H]3O)c(=O)n2C)c(O)c1` [Compound 31, 3-(4-ethynyl-2-hydroxyphenyl)-6-(((1R,2R)-2-hydroxycyclohexyl)amino)-4-methyl-1,2,4-tria zin-5(4H)-ketone] was 0.00364 µM. As for `Cn1c(-c2ccc3c(c2O)CCC3=C(F)F)nnc(N[C@@H]2CCCN(C3CC(F)(F)C3)C2)c1=O` [Compound 14, (R)-6-((1-(3,3-Difluorocyclobutyl)piperidin-3-yl)amino)-3-(1-(difluoromethylene)-4-hydroxy-2,3-dihydro-1H-inden-5-yl)-4-methyl-1,2,4-triazin-5(4H)-ketone], the IC50 came out at 0.032 µM. In the case of `Cn1c(-c2ccc3ccccc3c2O)nnc(N[C@@H]2CCCN(CCO)C2)c1=O` [Compound 20, (R)-6-((1-(2-hydroxyethyl)piperidin-3-yl)amino]-3-(1-hydroxynaphthalen-2-yl)-4-methyl-1,2,4-triazin-5(4H)-ketone], the IC50 was 0.0351 µM.
